{"source": "patent US20240238232A1", "about": "“COMPOSITIONS AND METHODS FOR THE REDUCTION OR TREATMENT OF INSULIN RESISTANCE AND METABOLIC CONDITIONS” (AXCELLA HEALTH INC., priority 2018, published 2024)", "key": {"[1]": {"tested_on": "B6.Cg-Lep^ob/J (ob/ob) mouse model", "assay": "Oral glucose tolerance test (OGTT) in ob/ob mice, Example 1", "format": "in vivo", "conditions": "for Blood glucose levels raw data: individual ob/ob mice, OGTT, metformin 450 mg/kg, hydrochloride; for Mean blood glucose level: ob/ob mice OGTT Day 3, metformin hydrochloride 450 mg/kg QD PO", "description": "Amino Acid Composition A-1 and metformin were tested for their ability to affect glucose tolerance in a genetically obese B6.Cg-Lep^ob/J (ob/ob) mouse model (Maida A, et al., 2010, PMID: 20972533).\nEight-week-old male ob/ob mice were subjected to treatment of test articles (Amino Acid Composition A-1 and metformin) followed by oral glucose tolerance test (OGTT) on Day 3. Mice were randomized by body weight and unfasted blood glucose on Day −1. Body weight was recorded daily in the morning before AM dosing on Day 1, Day 2, and Day 3. Test articles were dosed by oral gavage at 10 ml/kg. Dosage of a test article was calculated based on daily body weight. Treatment schedule and dose are listed in the following section (Table 34). AM doses were administered at 0700, and PM doses were administered at 1800. Oral glucose tolerance test (OGTT) was performed after 6-hour fasting on Day 3.\nMice were fasted for 6 hours prior to OGTT test. Food was removed at 0700 hours on Day 3; water was provided during fasting. Blood samples were collected from tail snip or facial puncture at −30 min (relative to OGTT) into K2EDTA tubes for baseline glucose and blood biochemistry (insulin, triglyceride, and cholesterol). Blood glucose was measured by a glucometer (SDI StatStrip Xpress or equivalent). Plasma was collected in K2EDTA and saved at −80° C.\nMice were bled for baseline glucose and plasma at −30 min. Test articles were then dosed by oral gavage at −30 min. Glucose was administered per os (P.O.) at a dosage of 2.0 g/kg body weight. Blood glucose levels were measured at 0 min immediately prior to glucose injection and then at 15, 30, 60, 120 and 240 minutes thereafter (shown as 0.25, 0.5, 1, 2, and 4 hours in Table 35 below).\nData are mean±standard deviation (stdev). (p values by Dunnett's multiple comparisons: **p<0.005 compared to vehicle control; ***p<0.001 compared to vehicle control; ****p<0.0005 compared to vehicle control.)"}, "[2]": {"tested_on": "B6.Cg-Lep^ob/J (ob/ob) mouse model", "assay": "Oral glucose tolerance test (OGTT) in ob/ob mice, Example 1", "format": "in vivo", "conditions": "timepoint −1 hours"}, "ob/ob mice; C57/BL6": {"tested_on": "ob/ob mice; C57/BL6", "conditions": "cited from earlier work"}}, "note": "Where “and” joins values, the source holds several entries; their conditions need not be identical. Equal values may be shown once. Where a name gives a salt, the structure may show the parent alone. Marks after values point to notes of the source that are not given here.", "data": [{"smiles": "CN(C)C(=N)N=C(N)N", "note": "[Metformin, Metformin hydrochloride]", "values": [{"measurement": "Blood glucose levels raw data", "setting": "[1]; timepoint 0 hours", "result": "274 mg/dL and 234 mg/dL and 220 mg/dL and 129 mg/dL and 140 mg/dL"}, {"measurement": "Blood glucose levels raw data", "setting": "[1]; timepoint 0.25 hours", "result": "387 mg/dL and 397 mg/dL and 427 mg/dL and 310 mg/dL and 247 mg/dL"}, {"measurement": "Blood glucose levels raw data", "setting": "[1]; timepoint 0.5 hours", "result": "462 mg/dL and 439 mg/dL and 482 mg/dL and 307 mg/dL and 261 mg/dL"}, {"measurement": "Blood glucose levels raw data", "setting": "[1]; timepoint 1 hours", "result": "365 mg/dL and 399 mg/dL and 431 mg/dL and 239 mg/dL and 154 mg/dL"}, {"measurement": "Blood glucose levels raw data", "setting": "[1]; timepoint 2 hours", "result": "154 mg/dL and 183 mg/dL and 219 mg/dL and 124 mg/dL and 111 mg/dL"}, {"measurement": "Blood glucose levels raw data", "setting": "[1]; timepoint 4 hours", "result": "118 mg/dL and 93 mg/dL and 155 mg/dL and 101 mg/dL and 80 mg/dL"}, {"measurement": "Mean blood glucose level", "setting": "[1]; timepoint 0 hours", "result": 199.4, "unit": "mg/dL"}, {"measurement": "Mean blood glucose level", "setting": "[1]; timepoint 0.25 hours", "result": "353.6**** mg/dl"}, {"measurement": "Mean blood glucose level", "setting": "[1]; timepoint 0.5 hours", "result": "390.2*** mg/dl"}, {"measurement": "Mean blood glucose level", "setting": "[1]; timepoint 1 hours", "result": 317.6, "unit": "mg/dL"}, {"measurement": "Mean blood glucose level", "setting": "[1]; timepoint 2 hours", "result": 158.2, "unit": "mg/dL"}, {"measurement": "Mean blood glucose level", "setting": "[1]; timepoint 4 hours", "result": 109.4, "unit": "mg/dL"}, {"measurement": "Blood glucose levels raw data", "setting": "[2]; individual ob/ob mice, OGTT, metformin 450 mg/kg, hydrochloride", "result": "265 mg/dL and 248 mg/dL and 183 mg/dL and 120 mg/dL and 166 mg/dL"}, {"measurement": "Mean blood glucose level", "setting": "[2]; ob/ob mice OGTT Day 3, metformin hydrochloride 450 mg/kg QD PO", "result": 196.4, "unit": "mg/dL"}, {"measurement": "Glucose tolerance (OGTT)", "setting": "ob/ob mice; C57/BL6; C57/BL6, single dose", "result": "improves glucose tolerance"}, {"measurement": "Plasma glucose", "setting": "ob/ob mice; C57/BL6; ob/ob mice (Cool B, et al., 2006)", "result": "lowers plasma glucose"}, {"measurement": "NAFLD", "setting": "ob/ob mice; C57/BL6; ob/ob mice (Lin H Z et al., 2000; Cool B, et al., 2006)", "result": "reverses NAFLD"}]}]}
